How the values were obtained:
[1] = test system: formalin-induced nociception in male C57 mice; experiment: Formalin Assay (paw flinching); assay type: in vivo, mouse; details: male C57 mice, 1, 3, 10 and 30 mpk, given 30 minutes prior to formalin; one-way ANOVA P<0.01 dose effect; FIG. 4 and 5
Method: Mice were tested for nociception with Automatic Nociception Analyzers (purchased from the Ozaki lab at University of California, San Diego). A metal band was placed around the left hind paw of each mouse with superglue 30 minutes prior to testing. After the 30-minute acclimation period, 20 μl of 5% formalin was subcutaneously injected in the dorsal surface of the left hind paw. Mice were individually housed in cylindrical chambers for 45 minutes. Fresh 5% formalin solution was prepared by diluting formaldehyde (Formalde-fresh 20%, Fisher Scientific, Fair Lawn, N.J.) with distilled water. Investigatory compounds were administered 30 minutes prior to formalin injection.
A computer software recorded flinches per minute, total flinches for Phase I (acute phase=first 8 minutes), and total flinches for Phase II (tonic phase between 20-40 minutes) through an electromagnetic field. See Yaksh T L, Ozaki G, McCumber D, Rathbun M, Svensson C, Malkmus S, Yaksh M C. An automated flinch detecting system for use in the formalin nociceptive bioassay. J Appl Physiol., 2001; 90:2386-402.

[2] = test system: tactile allodynia after spinal nerve ligation in mice; experiment: Mouse Chung Assay (spinal nerve ligation, von Frey tactile allodynia); assay type: in vivo; details: P<0.0001 in RM ANOVA, FIG. 6
Description: The compound 3-methyloxetan-3-yl-4-(3-(2-methoxypyridin-3-yl)pyrazolo[1,5-a]pyrimidin-5-yl)piperazine-1-carboxylate was studied in the Chung assay. See Chaplan S R, Bach F W, Pogrel J W, Chung J M, Yaksh T L., Quantitative assessment of tactile allodynia in the rat paw, J Neurosci Methods 1994; 53:55-63; Chung J M, Kim H K, Chung K., Segmental spinal nerve ligation model of neuropathic pain, Methods Mol Med. 2004; 99:35-45.
Wild-type hybrid (C57BL/6J-Tyr^c-Brd×129S5/SvEvBrd) male mice were between 5-7 weeks of age at the time of spinal nerve ligation by the conventional Chung protocol. Spinal nerve ligation was carried out according to the procedure devised by Kim and Chung with modifications. Briefly, mice were anesthetized with isoflurane (2% at the oxygen flow rate of […]). A skin incision (1 cm) was made 1 mm to the left of the dorsal midline, using the level of iliac crests as the mid point of the incision. […] In an initial experiment using hybrid mice, the presumptive locations of spinal nerve L5 and L6 were determined by using the sacroiliac junction as the landmark to locate L6, as previously described in SNL models in rats and mice. […] Mice were individually housed after the procedure and were monitored until complete recovery from anesthesia. […]

[3] = target: T1, AAK1 (full length human, NCBI accession no. NP_055726.2) (Homo sapiens, UniProt Q2M2I8); experiment: P81 Filter Plate Assay; assay type: biochemical; design: NP_055726.2; details: 0.2 nM AAK1 and 2 μM ATP in 2× mixes, 33P-ATP, one hour at RT; read-out: P81 assay result (inhibition of AAK1 phosphorylation of Mu2)
Method: Compounds were serially diluted into a Labcyte LDV plate (Labcyte, cat #LP-0200) using a Mutiprobe (PerkinElmer) and Biomek FX (Beckman Coulter) so that the highest compound concentration was at 96 μM. Compounds were then pinged (75 nL per well) into a Greiner 384-well reaction plate (Greiner, #781076) using an ECHO 550 Liquid Handler (Labcyte). A total of 12 μl reaction buffer (IMAP buffer containing Tween and DTT, from Molecular Devices) was then added to each well of columns 1 and 13 for the negative controls and 12 μl of 2×AAK1 (0.2 nM full-length human protein, NCBI accession no. NP_055726.2) was added to the remaining wells. Enzyme was then pre-incubated with compound for 10 minutes at RT. Reactions were initiated upon Minitrak (PerkinElmer) addition of 12 μl substrate mix containing 2× Mu2 (0.2 μM, full length human protein), 2× cold ATP (2 μM), and 1.3 μCi of hot ^33P-ATP. Reactions proceeded for one hour at RT. Meanwhile, Millipore 384-well P81 filter plates (Millipore, catalog #MZPHNOW10) were placed on a plate washer (Zoom ZW, from Titertek) and pre-wet with 50 μl 1% phosphoric acid. […] The bottom of each filter plate was sealed followed by addition of 20 μl Microscint 40 to each well, sealing the top of the plates with Flashplate cover, and then waiting one hour until reading on the TopCount (PerkinElmer).

[4] = target: T1, AAK1 (full length human, NCBI accession no. NP_055726.2); experiment: HEK281 Cell-Based Assay (phospho-mu2 Western blot in HEK293F cells transfected with AAK1 and AP2M1); design: HA; expressed in transfected cells; host or cells: HEK293F; details: 3 hours incubation, read-out: HEK281 cell-based assay IC50 (inhibition of mu2 phosphorylation)
Method: HEK293F cells were cultured in media containing DMEM (Gibco, cat. #11965), 10% FBS (SAFC Biosciences, cat. #12103C), 1×GPS (glutamine, penicillin and streptomycin). On day one, cells were plated on a 10 cm dish so that they are ˜80% confluent at time of transfection. Roughly 12 million cells were in a 10 cm dish at time of transfection. On day two, each dish was transfected with 48 ug DNA and 144 ul Lipofectamine 2000 (Invitrogen, cat. #11668-019). The DNA was comprised of a mixture (per 10 cm dish) containing 3 ug AAK1/HA/pIRES (full length human, NCBI accession no. NP_055726.2), 45 μg Flag/AP2MI/pcDNA (full length human), and 1.5 ml OPTI-MEM. The Lipofectamine 2000 is made up of a mixture (per 10 cm dish) containing 144 μl Lipofectamine 2000 and 1.5 ml OPTI-MEM. Each mixture was transferred to individual 15 ml tubes and incubated at RT for 5 minutes, and then the two mixes were combined and incubated at RT for 20 minutes. Growth media was then aspirated from each 10 cm plate and replaced with 10 ml of DMEM+10% FBS (no GPS). Finally, 3 ml DNA/Lipofectamine mix was added to each 10 cm dish and mix gently followed by incubate of plate overnight at 37° C. and 5% CO2.
On day three, compounds were diluted in 100% DMSO at 1000× final concentration, followed by 3-fold serial dilutions for a total of 5 concentrations tested. Four compounds were tested per 10 cm dish. […]

PC12 cells = details: Kuai et al. 2011; cited from earlier work
AAK1 = AAK1 (Homo sapiens, UniProt Q2M2I8); details: cited from earlier work
Chain of AAK1 (Q2M2I8 whole entry, species assumed): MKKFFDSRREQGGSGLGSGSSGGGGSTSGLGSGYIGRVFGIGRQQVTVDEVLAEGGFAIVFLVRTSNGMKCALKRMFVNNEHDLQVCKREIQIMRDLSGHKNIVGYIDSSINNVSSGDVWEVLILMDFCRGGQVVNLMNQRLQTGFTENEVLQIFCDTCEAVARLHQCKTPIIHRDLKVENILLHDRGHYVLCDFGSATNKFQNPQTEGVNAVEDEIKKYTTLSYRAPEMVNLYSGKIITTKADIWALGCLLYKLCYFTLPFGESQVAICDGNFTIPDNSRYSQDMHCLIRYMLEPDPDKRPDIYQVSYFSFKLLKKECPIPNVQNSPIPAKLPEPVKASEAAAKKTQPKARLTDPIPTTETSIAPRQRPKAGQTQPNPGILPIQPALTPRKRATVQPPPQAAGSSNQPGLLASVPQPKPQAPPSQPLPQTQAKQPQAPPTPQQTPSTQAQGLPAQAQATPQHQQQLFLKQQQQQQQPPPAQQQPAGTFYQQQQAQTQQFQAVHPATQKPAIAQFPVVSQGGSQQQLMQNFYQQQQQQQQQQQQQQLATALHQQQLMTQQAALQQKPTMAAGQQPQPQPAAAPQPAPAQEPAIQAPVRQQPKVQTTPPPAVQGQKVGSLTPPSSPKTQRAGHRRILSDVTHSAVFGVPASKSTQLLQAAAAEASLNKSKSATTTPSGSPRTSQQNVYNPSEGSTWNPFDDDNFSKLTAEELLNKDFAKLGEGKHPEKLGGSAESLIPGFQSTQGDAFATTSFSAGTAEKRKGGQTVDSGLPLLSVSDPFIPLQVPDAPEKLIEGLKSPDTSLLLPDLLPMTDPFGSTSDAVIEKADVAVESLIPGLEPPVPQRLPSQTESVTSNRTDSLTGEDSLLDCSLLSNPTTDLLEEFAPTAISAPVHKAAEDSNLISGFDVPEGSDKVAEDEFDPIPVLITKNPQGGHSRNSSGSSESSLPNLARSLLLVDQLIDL

T1 sequence (Q2M2I8 1-863 isoform Q2M2I8-2): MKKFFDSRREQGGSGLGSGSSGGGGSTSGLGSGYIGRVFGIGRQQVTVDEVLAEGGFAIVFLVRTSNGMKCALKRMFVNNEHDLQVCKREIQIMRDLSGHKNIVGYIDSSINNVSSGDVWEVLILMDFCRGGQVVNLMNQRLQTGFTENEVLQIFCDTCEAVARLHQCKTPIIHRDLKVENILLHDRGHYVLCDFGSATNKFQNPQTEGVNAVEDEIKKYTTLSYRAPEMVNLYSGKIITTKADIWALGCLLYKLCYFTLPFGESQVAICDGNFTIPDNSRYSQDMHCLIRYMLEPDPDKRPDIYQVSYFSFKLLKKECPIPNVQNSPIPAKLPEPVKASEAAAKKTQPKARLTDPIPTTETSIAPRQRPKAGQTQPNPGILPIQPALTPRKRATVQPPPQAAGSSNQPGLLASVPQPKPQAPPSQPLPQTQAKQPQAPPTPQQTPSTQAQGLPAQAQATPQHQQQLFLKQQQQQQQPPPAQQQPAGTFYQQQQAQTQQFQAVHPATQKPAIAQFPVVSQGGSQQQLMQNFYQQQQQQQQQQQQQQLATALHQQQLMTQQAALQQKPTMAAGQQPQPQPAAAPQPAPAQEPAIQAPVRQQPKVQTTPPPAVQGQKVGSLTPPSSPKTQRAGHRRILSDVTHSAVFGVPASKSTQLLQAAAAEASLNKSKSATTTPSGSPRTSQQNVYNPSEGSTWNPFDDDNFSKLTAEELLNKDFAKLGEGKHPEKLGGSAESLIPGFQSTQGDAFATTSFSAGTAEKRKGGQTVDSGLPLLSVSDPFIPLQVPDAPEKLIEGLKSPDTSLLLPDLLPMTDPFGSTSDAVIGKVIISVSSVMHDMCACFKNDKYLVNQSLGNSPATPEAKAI

Row | SMILES | Formalin phase 2 (tonic phase) flinches versus vehicle [1] | Effect in the Chung assay (von Frey 50% withdraw threshold) [2] | IC50 [3] | IC50 [4] | Effect on Neuregulin-1 induced neurite outgrowth (PC12 cells) | Effect on AAK1 kinase activity (AAK1)
1 | COc1ncccc1-c1cnn2ccc(N3CCN(C(=O)OC4(C)COC4)CC3)nc12 [3-methyloxetan-3-yl-4-(3-(2-methoxypyridin-3-yl)pyrazolo[1,5-a]pyrimidin-5-yl)piperazine-1-carboxylate] | dramatic effect | dose-dependent, significantly significant effect | 0.9 nM | 4.7 nM |  | 
2 | COC(=O)[C@@]1(O)C[C@H]2O[C@]1(C)n1c3ccccc3c3c4c(c5c6ccccc6n2c5c31)C(=O)NC4 [K252a] |  |  |  |  | potentiation of Neuregulin-1 induced neurite outgrowth | inhibits AAK1 kinase activity

From US9682982B2, “Inhibitors of adapter associated kinase 1, compositions comprising them, and methods of their use” (Lexicon Pharmaceuticals, Inc., priority 2014, dated 2017)
